In BindingDB's records for doi:10.1016/j.ejmech.2016.01.046 (Italian Institute of Technology, 2016) one finds IC50 data, which are given here for one compound.

For the experiment, the target named is T1, N-acylethanolamine-hydrolyzing acid amidase (Homo sapiens, UniProt Q02083).
T1 sequence (Q02083 whole entry): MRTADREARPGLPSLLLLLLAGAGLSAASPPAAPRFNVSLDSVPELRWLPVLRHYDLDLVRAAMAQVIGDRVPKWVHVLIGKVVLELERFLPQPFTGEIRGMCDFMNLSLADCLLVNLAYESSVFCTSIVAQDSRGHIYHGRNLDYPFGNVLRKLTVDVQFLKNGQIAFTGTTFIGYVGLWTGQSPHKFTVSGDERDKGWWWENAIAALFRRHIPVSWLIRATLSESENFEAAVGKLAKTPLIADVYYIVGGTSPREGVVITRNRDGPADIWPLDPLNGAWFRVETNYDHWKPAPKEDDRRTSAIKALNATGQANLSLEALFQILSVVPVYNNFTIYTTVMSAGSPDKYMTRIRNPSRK
The experiment in a line: ChEBML_1558887. The procedure:
Inhibition of human NAAA expressed in HEK293 cells preincubated for 10 mins followed by N-(4-methyl-2-oxo-chromen-7-yl)-hexadecanamide substrate addition for 30 mins by microplate reader analysis

Compound `COc1ccc(CCCCOC(=O)N[C@H]2CNC2=O)cc1` had an IC50 of 520 nM.
